Measured values published in patent publication US20200278355A1, “CONJUGATED PROTEINS AND USES THEREOF” (THE SCRIPPS RESEARCH INSTITUTE, priority 2017, published 2020).
Entries after “also recorded” stand apart in the source; their conditions may differ.

Target: T1, NR0B1-SNW1 interaction (Homo sapiens, UniProt P51843)
T1 construct: endogenous in cells; host or cells: NR0B1: H2122 cell lysate
T1 sequence (P51843 1-470): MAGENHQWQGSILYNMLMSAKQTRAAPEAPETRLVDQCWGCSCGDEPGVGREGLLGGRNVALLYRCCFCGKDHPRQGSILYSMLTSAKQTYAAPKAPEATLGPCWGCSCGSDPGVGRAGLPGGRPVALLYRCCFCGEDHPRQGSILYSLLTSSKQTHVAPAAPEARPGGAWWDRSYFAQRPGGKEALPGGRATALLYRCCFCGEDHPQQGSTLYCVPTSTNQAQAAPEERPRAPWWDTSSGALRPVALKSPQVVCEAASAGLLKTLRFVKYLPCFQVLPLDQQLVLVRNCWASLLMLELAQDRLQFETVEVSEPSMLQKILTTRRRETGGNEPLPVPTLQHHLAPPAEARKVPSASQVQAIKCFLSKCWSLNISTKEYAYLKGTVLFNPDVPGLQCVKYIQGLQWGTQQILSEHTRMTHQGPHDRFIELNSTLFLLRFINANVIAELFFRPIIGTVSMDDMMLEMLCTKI
Assay: In vitro binding assay: NR0B1 in H2122 lysate binding to immobilized FLAG-SNW1
Details: for IC50: in vitro, read-out: IC50, inhibition of the NR0B1-SNW1 interaction
Experimental: H2122 clarified cell lysate (100 μL, 1 mg ml^−1) in IP-buffer were incubated with the indicated compounds or vehicle (DMSO) for 3 hours at 4° C. with rotation. Following treatment, 3 volumes of IP-buffer was added along with immobilized FLAG-SNW1 beads (30 μL, 50:50 slurry), which was incubated for an additional hour at 4° C. Beads were washed three times with IP-buffer supplemented with 500 mM NaCl. Immunoprecipitated proteins were resolved by SDS-PAGE and analyzed by immunoblotting. NR0B1 and HA-NR0B1 levels were determined by using the NR0B1 antibody (Cell Signaling). IC50 curves were determined using Prism 6 (Graphpad) software, with maximum and minimum values set at 100% NR0B1 bound 0% NR0B1 bound respectively.
Statistical analysis was preformed using GraphPad Prism version 6 or 7 for Mac, GraphPad Software, La Jolla Calif. USA, or the R statistical programming language. Inhibition curves of the NR0B1-SNW1 interactions by NR0B1-ligand are fit as using log(inhibitor) vs % normalized remaining of NR0B1-SNW1 interaction and data points are plotted as the mean±SD (n=2-5 per group). NR0B1 half-life was calculated from a one-phase exponential decay curve plotted as mean±SD (4-10 per group). Statistical significance was defined as p<0.05 and determined by 2-tailed Student's t-test (FIG. 1I, FIG. 3B), two-way Anova with Bonferroni post-test analysis (FIG. 1J) or correlation analysis using Pearson product-moment correlation coefficient (FIG. 4B, FIG. 10G).
Next, a chemical probe targeting C274 of NR0B1 was developed. Using an in vitro binding assay (FIG. 5B), an ˜80-member library of cysteine-reactive electrophilic compounds was screened at 50 μM for blockade of interactions between endogenous NR0B1 and recombinant FLAG-SNW1 in cell lysates (FIG. 5C). Among the hits (>50% blockade) were a series of N-disubstituted chloroacetamides (CAs), including BPK-26 (FIGS. 5D, 5E), that were selected for further investigation. […] Both BPK-26 and BPK-29 inhibited the NR0B1-SNW1 interaction with IC50 values between 10-20 μM in vitro (FIG. 11C).

| Structure (SMILES) | inhibition of the NR0B1-SNW1 interaction (tested concentration range of 1-50 μM) | IC50 [µM] | blockade of interactions between endogenous NR0B1 and recombinant FLAG-SNW1 (screened at 50 μM in cell lysates) [%] | relative potency for inhibition of FLAG-SNW1 binding to NR0B1 (structure-activity relationship) (compounds at 50 μM) |
| --- | --- | --- | --- | --- |
| O=C(c1ccc(N2CCOCC2)cc1)N1CCC(CN(C(=O)CCl)c2cncnc2)CC1 [BPK-9, 2-chloro-N-((1-(4-morpholinobenzoyl)piperidin-4-yl)methyl)-N-(pyrimidin-5-yl)acetamide] | did not inhibit | – | – | – |
| O=C(CCl)N(Cc1cccc(Cl)c1F)c1ccc(Cl)nc1 [BPK-26, 2-chloro-N-(3-chloro-2-fluorobenzyl)-N-(6-chloropyridin-3-yl)acetamide] | – | 10 to 20 | > 50 | – |
| O=C(c1ccc(N2CCOCC2)cc1)N1CCCC(N(Cc2ccccc2)C(=O)CCl)CC1 (centres unmarked) [BPK-29, N-benzyl-2-chloro-N-(1-(4-morpholinobenzoyl)azepan-4-yl)acetamide] | – | 10 to 20 | – | the most potent analogue; also recorded: recovered potency |
